# Measured values as given in patent US20240124556A1, “KERATIN BD-3, PREPARATION METHOD THEREFOR AND PHARMACEUTICAL COMPOSITION AND USE THEREOF” (INSTITUTE OF MATERIA MEDICA, CHINESE ACADEMY OF MEDICAL …, priority 2019, published 2024).
# Counter-ions that a name gives are not always drawn.
# Tested on: phenol red excretion in mice
# Assay: Expectorant test, phenol red excretion method in mice
# Type: in vivo, ICR mice
# Description: • Animals: male ICR mice; • Drugs and reagents: Mucosolvan (ambroxol hydrochloride tablets), phenol red, sodium bicarbonate, protein BD-3; • Instruments: centrifuge (Sigma-3K15 type), balance (XS105DU type), Microplate tester (BIO-TEK type). • Experiment Grouping: • Solvent control group; • Mucosolvan 30 mg/kg group; • Protein BD-3, 20 mg/kg group, 50 mg/kg group.
# The animals were fasted and water was taken freely 16 hours before the experiment. Orally administered Mucosolvan and different doses of protein BD-3 (administration volume 10 ml/kg) in groups, and the solvent control group was given the same volume of distilled water. One hour later, 2.5% phenol red solution was injected intraperitoneally. Mice were sacrificed by neck dislocation after 30 minutes. […] Measure and record the absorbance at 546 nm. According to the standard curve of phenol red, the excretion of phenol red was calculated.
# Record the time point of oral administration, the time point of intraperitoneal injection of 2.5% phenol red solution, and the time point of taking the trachea respectively; The absorbance of each group of samples was measured by the microplate reader at 546 nm, Calculate the excretion of phenol red according to the standard curve of phenol red. […]
structure (smiles),measurement,setting,value
"Nc1c(Br)cc(Br)cc1CN[C@H]1CC[C@H](O)CC1 [Mucosolvan, ambroxol hydrochloride, reference compound]",Phenol red excretion,"Mucosolvan 30 mg/kg oral, X ± SEM, solvent control 0.506 ± 0.040",1.061 ± 0.117 µg/mL
same,Amount of phenol red excretion vs solvent control (in words),"Mucosolvan 30 mg/kg, P<0.05",significantly increased
